From PubChem BioAssay AID1845212 (Molecular Pharmacology Branch, DTP, NCI, 2023)
The source made the active and inactive calls. The calls were made as follows: active = viability on the fitted dose curve at most 10% of control; inactive = the rest.

System: NCI-H719 tumor spheroids, viability
Test: Anticancer human tumor NCI-H719 cell line growth inhibition;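 as to IC50: spheroids exposed to compounds for seven days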;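 as to viability, T/C: spheroids exposed to compounds for seven days; percent viability relative to DMSO vehicle control as 100%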
Conditions: spheroids with HUVEC and MSC; for IC50: curve of first compound; for viability, T/C: stronger effect = lower value
How it was run: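 Complex spheroids of malignant cells with endothelial cells and mesenchymal stem cells; agents alone or combined, from near clinical Cmax (or 10 microM if unknown) down in half-log steps, 0.25% DMSO final.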

[1] = second compound 1 µM, first compound 0.0316 µM
[2] = second compound 1 µM, first compound 0.1 µM
[3] = second compound 1 µM, first compound 0.316 µM
[4] = second compound 1 µM, first compound 1 µM
[5] = second compound 1 µM, first compound 3.16 µM
[6] = second compound 1 µM, first compound 10 µM
[7] = second compound 3.16 µM, first compound 0.0316 µM
[8] = second compound 3.16 µM, first compound 0.1 µM
[9] = second compound 3.16 µM, first compound 0.316 µM
[10] = second compound 3.16 µM, first compound 1 µM
[11] = second compound 3.16 µM, first compound 3.16 µM
[12] = second compound 3.16 µM, first compound 10 µM
[13] = second compound 10 µM, first compound 0.0316 µM
[14] = second compound 10 µM, first compound 0.1 µM
[15] = second compound 10 µM, first compound 0.316 µM
[16] = second compound 10 µM, first compound 1 µM
[17] = second compound 10 µM, first compound 3.16 µM
[18] = second compound 10 µM, first compound 10 µM
[19] = second compound 31.6 µM, first compound 0.0316 µM
[20] = second compound 31.6 µM, first compound 0.1 µM
[21] = second compound 31.6 µM, first compound 0.316 µM
[22] = second compound 31.6 µM, first compound 1 µM
[23] = second compound 31.6 µM, first compound 3.16 µM
[24] = second compound 31.6 µM, first compound 10 µM
[25] = second compound 100 µM, first compound 0.0316 µM
[26] = second compound 100 µM, first compound 0.1 µM
[27] = second compound 100 µM, first compound 0.316 µM
[28] = second compound 100 µM, first compound 1 µM
[29] = second compound 100 µM, first compound 3.16 µM
[30] = second compound 100 µM, first compound 10 µM

CC1COCCN1c1cc(-c2ccnn2C)c2ccnc(-c3ccn[nH]3)c2n1 (stereo not given) + Cn1nnc2c(C(N)=O)ncn2c1=O showed an IC50 (second compound 1 µM) of 0.0811 µM, an IC50 (second compound 3.16 µM) of 0.0602 µM and an IC50 (second compound 10 µM) of 0.0638 µM. It also gave an IC50 (second compound 31.6 µM) of 0.0389 µM, an IC50 (second compound 100 µM) of less than 0.0316 µM and a viability, T/C [1] of 60.4%. It also gave a viability, T/C [2] of 47.4%, a viability, T/C [3] of 27.2% and a viability, T/C [4] of 13.5%. For the same compound, the viability, T/C [5] was 7.33%, the viability, T/C [6] was 9.3% and the viability, T/C [7] was 61.2%. The viability, T/C [8] was 40.7%, the viability, T/C [9] was 23.1% and the viability, T/C [10] was 10.2%. For the same compound, the viability, T/C [11] was 7.62%, the viability, T/C [12] was 9.51% and the viability, T/C [13] was 63.1%. The viability, T/C [14] was 41%, the viability, T/C [15] was 23.3% and the viability, T/C [16] was 9.97%. The viability, T/C [17] was 7.59%, the viability, T/C [18] was 8.83% and the viability, T/C [19] was 54.5%. It also gave a viability, T/C [20] of 30.4%, a viability, T/C [21] of 18.1% and a viability, T/C [22] of 8.01%. The viability, T/C [23] was 6.53%, the viability, T/C [24] was 9.03% and the viability, T/C [25] was 26.8%. The viability, T/C [26] was 14.7%, the viability, T/C [27] was 9.58% and the viability, T/C [28] was 5.42%. The viability, T/C [29] was 17.8% and the viability, T/C [30] was 7.51%.

For COc1cc(C)[nH]c(=O)c1CN1CCc2c(Cl)cc(C(OC)C3COC3)c(Cl)c2C1=O (stereo not given) + Cn1nnc2c(C(N)=O)ncn2c1=O, the IC50 (second compound 1 µM) was greater than 10 µM, the IC50 (second compound 3.16 µM) was greater than 10 µM and the IC50 (second compound 10 µM) was greater than 10 µM. The IC50 (second compound 31.6 µM) was greater than 10 µM, the IC50 (second compound 100 µM) was greater than 10 µM and the viability, T/C [1] was 101%. For the same compound, the viability, T/C [2] was 101%, the outcome [3] was “inactive” and the viability, T/C [4] was 111%. For the same compound, the viability, T/C [5] was 108%, the viability, T/C [6] was 103% and the viability, T/C [7] was 103%. For the same compound, the viability, T/C [8] was 108%, the viability, T/C [9] was 119% and the viability, T/C [10] was 117%. The viability, T/C [11] was 112%, the viability, T/C [12] was 110% and the viability, T/C [13] was 110%. The viability, T/C [14] was 110%, the viability, T/C [15] was 122% and the viability, T/C [16] was 121%. For the same compound, the viability, T/C [17] was 125%, the viability, T/C [18] was 118% and the viability, T/C [19] was 118%. The viability, T/C [20] was 111%, the viability, T/C [21] was 111% and the viability, T/C [22] was 125%. For the same compound, the viability, T/C [23] was 118%, the viability, T/C [24] was 119% and the viability, T/C [25] was 109%. The viability, T/C [26] was 101%, the viability, T/C [27] was 99.7% and the viability, T/C [28] was 109%. For the same compound, the viability, T/C [29] was 115% and the viability, T/C [30] was 109%.

Cc1cc(C)c(CNC(=O)c2cc(-c3ccc(CN4CCOCC4)cc3)cc3c2cnn3C2CCCC2)c(=O)[nH]1 + Cn1nnc2c(C(N)=O)ncn2c1=O showed an IC50 (second compound 1 µM) greater than 10 µM, an IC50 (second compound 3.16 µM) greater than 10 µM and an IC50 (second compound 10 µM) greater than 10 µM. For the same compound, the IC50 (second compound 31.6 µM) was greater than 10 µM, the IC50 (second compound 100 µM) was greater than 10 µM and the viability, T/C [1] was 96.9%. The viability, T/C [2] was 105%, the viability, T/C [3] was 100% and the outcome [4] was “inactive”. For the same compound, the viability, T/C [5] was 94%, the viability, T/C [6] was 76.5% and the viability, T/C [7] was 105%. The viability, T/C [8] was 102%, the viability, T/C [9] was 108% and the viability, T/C [10] was 107%. It also gave a viability, T/C [11] of 92.2%, a viability, T/C [12] of 82.2% and a viability, T/C [13] of 105%. For the same compound, the outcome [14] was “inactive”, the viability, T/C [15] was 108% and the viability, T/C [16] was 110%. For the same compound, the viability, T/C [17] was 94.3%, the viability, T/C [18] was 94.5% and the viability, T/C [19] was 113%. The viability, T/C [20] was 119%, the viability, T/C [21] was 123% and the viability, T/C [22] was 108%. It also gave a viability, T/C [23] of 94.6%, a viability, T/C [24] of 85.7% and a viability, T/C [25] of 101%. It also gave a viability, T/C [26] of 108%, a viability, T/C [27] of 103% and a viability, T/C [28] of 103%. It also gave a viability, T/C [29] of 107% and a viability, T/C [30] of 76.8%.

[2H]c1nc(C)nc([2H])c1-c1cc(NC[C@@H](C)c2cccc3c(C(=O)NC)ccnc23)ncn1 + Cn1nnc2c(C(N)=O)ncn2c1=O was tested, and the IC50 (second compound 1 µM) was greater than 10 µM, the IC50 (second compound 3.16 µM) was greater than 10 µM and the IC50 (second compound 10 µM) was greater than 10 µM. For the same compound, the IC50 (second compound 31.6 µM) was greater than 10 µM, the IC50 (second compound 100 µM) was greater than 10 µM and the viability, T/C [1] was 93.8%. The viability, T/C [2] was 101%, the viability, T/C [3] was 90.4% and the viability, T/C [4] was 99.2%. The viability, T/C [5] was 90.6%, the viability, T/C [6] was 87.8% and the viability, T/C [7] was 104%. For the same compound, the viability, T/C [8] was 90.1%, the viability, T/C [9] was 95.3% and the viability, T/C [10] was 94.4%. The viability, T/C [11] was 98.9%, the viability, T/C [12] was 98.7% and the viability, T/C [13] was 103%. The viability, T/C [14] was 97%, the viability, T/C [15] was 90.4% and the viability, T/C [16] was 96.8%. It also gave a viability, T/C [17] of 89.8%, a viability, T/C [18] of 94.2% and a viability, T/C [19] of 101%. For the same compound, the viability, T/C [20] was 105%, the viability, T/C [21] was 101% and the viability, T/C [22] was 104%. The viability, T/C [23] was 109%, the viability, T/C [24] was 82.4% and the viability, T/C [25] was 87.1%. It also gave a viability, T/C [26] of 84.2%, a viability, T/C [27] of 68.6% and a viability, T/C [28] of 70.3%. The viability, T/C [29] was 68.2% and the viability, T/C [30] was 62.8%.
